{"source": "patent US20230136789A1", "about": "“POLYMER IMPLANTS” (Foundry Therapeutics, Inc., priority 2020, published 2023)", "origin": "cited, not measured here"}
{"compound": "CCCCN1CCCCC1C(=O)Nc1c(C)cccc1C", "note": "(stereo not shown) [bupivacaine]", "values": [{"measurement": "pKa", "value": "about 8.0"}]}
